Source: ChEMBL document CHEMBL3832761, “MMV Pathogen Box Bioactivity Data” (2017)
Converted amounts (≈) assume the structure as drawn.

Key:
Assay type in all cases: functional
[1] = system: Mycobacterium tuberculosis; experiment: (§1) AntiMycobacterium tuberculosis activity day 10 in 7H9/2.5mM butyrate/pH6/0.1mM nitrite MIC90 (uM); settings: 240 h
[2] = system: Mycobacterium tuberculosis; experiment: AntiMycobacterium tuberculosis activity day 21 in 7H9/2.5mM butyrate/pH6/0.1mM nitrite MIC90 (uM); settings: 504 h
[3] = system: Mycobacterium tuberculosis; experiment: AntiMycobacterium tuberculosis activity Non-Replicating form: Average MIC90 (uM)
[4] = system: Mycobacterium tuberculosis; experiment: AntiMycobacterium tuberculosis activity 2-week 7H9/glucose/BSA/Tx MIC (uM); settings: 336 h
[5] = system: Mycobacterium tuberculosis; experiment: AntiMycobacterium tuberculosis activity day 21 MIC99 in 7H9/2.5mM butyrate/pH6/0.1mM nitrite MIC99 (uM); settings: 504 h
[6] = system: Mycobacterium tuberculosis; experiment: AntiMycobacterium tuberculosis activity 2-week Alamar Blue 7H9/ADC/Tw MIC (uM); settings: 336 h
[7] = system: Mycobacterium tuberculosis; experiment: as §1; settings: 240 h; remark: listed apart in the source
[8] = system: Mycobacterium tuberculosis; experiment: AntiMycobacterium tuberculosis activity 1-week 7H9/cholesterol/BSA/Tx MIC (uM); settings: 168 h
[9] = system: Mycobacterium tuberculosis; experiment: AntiMycobacterium tuberculosis activity 2-week Alamar Blue 7H9/cholesterol/BSA/Tx MIC (uM); settings: 336 h
[10] = system: Mycobacterium tuberculosis; experiment: AntiMycobacterium tuberculosis activity 2-week 7H9/ADC/Tw MIC (uM); settings: 336 h
[11] = system: Mycobacterium tuberculosis; experiment: AntiMycobacterium tuberculosis activity 1-week GAST/Fe MIC (uM); settings: 168 h
[12] = system: Mycobacterium tuberculosis; experiment: AntiMycobacterium tuberculosis activity 1-week 7H9/ADC/Tw MIC (uM); settings: 168 h
[13] = system: Mycobacterium tuberculosis; experiment: AntiMycobacterium tuberculosis activity Replicating form: Average MIC90 (uM)
[14] = system: HepG2; experiment: HepG2 CC50 (uM) Cytotoxicity; settings: Homo sapiens
[15] = system: Mycobacterium tuberculosis; experiment: AntiMycobacterium tuberculosis activity 1-week 7H9/DPPC/cholesterol/BSA/Tx MIC (uM); settings: 168 h
[16] = system: Mycobacterium tuberculosis; experiment: AntiMycobacterium tuberculosis activity 2-week 7H9/DPPC/cholesterol/BSA/Tx MIC (uM); settings: 336 h
[17] = system: Mycobacterium tuberculosis; experiment: AntiMycobacterium tuberculosis activity 1-week 7H9/glucose/BSA/Tx MIC (uM); settings: 168 h
[18] = system: Mycobacterium tuberculosis; experiment: AntiMycobacterium tuberculosis activity 2-week GAST/Fe MIC (uM); settings: 336 h

Structure (SMILES) | MIC90 [1] | MIC90 [2] | MIC90 [3] | MIC [4] | MIC [5] | MIC [6] | MIC90 [7] | MIC [8] | MIC [9] | MIC [10] | MIC [11] | MIC [12] | MIC90 [13] | CC50 [14] | MIC [15] | MIC [16] | MIC [17] | MIC [18]
CCOC(=O)c1cc(-c2csc(Nc3c(C)cc(C)cc3C)n2)on1 | 6.25 µM (≈ 2.23 µg/mL) | 6.25 µM (≈ 2.23 µg/mL) | 13.8 µM (≈ 4.94 µg/mL) | 4.7 µM (≈ 1.68 µg/mL) | 6.25 µM (≈ 2.23 µg/mL) | 6.25 µM (≈ 2.23 µg/mL) | 3.1 µM (≈ 1.11 µg/mL) | 1.56 µM (≈ 0.558 µg/mL) | 3.13 µM (≈ 1.12 µg/mL) | 9.4 µM (≈ 3.36 µg/mL) | 12.5 µM (≈ 4.47 µg/mL) | 4.7 µM (≈ 1.68 µg/mL) | 17.5 µM (≈ 6.26 µg/mL) | 24.4 µM | 3.13 µM (≈ 1.12 µg/mL) | 6.25 µM (≈ 2.23 µg/mL) | 3.13 µM (≈ 1.12 µg/mL) | 12.5 µM (≈ 4.47 µg/mL)
FC(F)(F)c1nnc2ccc(Cl)nn12 | > 50 µM | 50 µM (≈ 11.1 µg/mL) | 7.75 µM (≈ 1.72 µg/mL) | 4.7 µM (≈ 1.05 µg/mL) | > 50 µM | 4.7 µM (≈ 1.05 µg/mL) | 3.12 µM (≈ 0.694 µg/mL) | 4.7 µM (≈ 1.05 µg/mL) | 6.25 µM (≈ 1.39 µg/mL) | 6.25 µM (≈ 1.39 µg/mL) | 0.6 µM (≈ 0.134 µg/mL) | 3.13 µM (≈ 0.697 µg/mL) | 6.37 µM (≈ 1.42 µg/mL) | > 100 µM | 4.7 µM (≈ 1.05 µg/mL) | 6.25 µM (≈ 1.39 µg/mL) | 3.13 µM (≈ 0.697 µg/mL) | 1.2 µM (≈ 0.267 µg/mL)
COc1ccccc1OCCCCn1c(C2CC2)nc2ccccc21 | 50 µM (≈ 16.8 µg/mL) | 25 µM (≈ 8.41 µg/mL) | 16.4 µM (≈ 5.52 µg/mL) | > 50 µM | > 50 µM | 19 µM (≈ 6.39 µg/mL) | 6.25 µM (≈ 2.1 µg/mL) | 3.13 µM (≈ 1.05 µg/mL) | 4.7 µM (≈ 1.58 µg/mL) | > 50 µM | 0.2 µM (≈ 0.0673 µg/mL) | > 50 µM | > 100 µM | 100 µM | 9.4 µM (≈ 3.16 µg/mL) | 37 µM (≈ 12.4 µg/mL) | 37 µM (≈ 12.4 µg/mL) | 0.6 µM (≈ 0.202 µg/mL)
CCC(Sc1nc2ccccc2o1)C(=O)Nc1nccs1 (stereo not given) | 12.5 µM (≈ 3.99 µg/mL) | 6.25 µM (≈ 2 µg/mL) | 1.38 µM (≈ 0.441 µg/mL) | 12.5 µM (≈ 3.99 µg/mL) | 6.25 µM (≈ 2 µg/mL) | 9.4 µM (≈ 3 µg/mL) | 6.25 µM (≈ 2 µg/mL) | 12.5 µM (≈ 3.99 µg/mL) | 12.5 µM (≈ 3.99 µg/mL) | 9.4 µM (≈ 3 µg/mL) | 37 µM (≈ 11.8 µg/mL) | 9.4 µM (≈ 3 µg/mL) | 3.08 µM (≈ 0.984 µg/mL) | 13 µM | 9.4 µM (≈ 3 µg/mL) | 12.5 µM (≈ 3.99 µg/mL) | 9.4 µM (≈ 3 µg/mL) | 37 µM (≈ 11.8 µg/mL)
NC(=O)c1cc(Br)ccc1OCCOc1ccccc1 | > 50 µM | > 50 µM | > 100 µM | > 50 µM | > 50 µM | > 50 µM | 50 µM (≈ 16.8 µg/mL) | 50 µM (≈ 16.8 µg/mL) | > 50 µM | > 50 µM | 6.25 µM (≈ 2.1 µg/mL) | > 50 µM | > 100 µM | > 100 µM | > 50 µM | > 50 µM | > 50 µM | 37 µM (≈ 12.4 µg/mL)
Cc1cc(OCC(=O)NCc2ccccc2)c2cc(Br)ccc2n1 | 25 µM (≈ 9.63 µg/mL) | 6.25 µM (≈ 2.41 µg/mL) | 21.2 µM (≈ 8.17 µg/mL) | 50 µM (≈ 19.3 µg/mL) | > 50 µM | 4.7 µM (≈ 1.81 µg/mL) | 1.5 µM (≈ 0.578 µg/mL) | 2.3 µM (≈ 0.886 µg/mL) | 1.56 µM (≈ 0.601 µg/mL) | > 50 µM | 0.2 µM (≈ 0.0771 µg/mL) | 50 µM (≈ 19.3 µg/mL) | > 100 µM | 31 µM | 3.13 µM (≈ 1.21 µg/mL) | 25 µM (≈ 9.63 µg/mL) | 37 µM (≈ 14.3 µg/mL) | 0.39 µM (≈ 0.15 µg/mL)
Nc1nc2cc(-c3cncc(Oc4ccc(F)cc4)c3)ccc2[nH]1 | 25 µM (≈ 8.01 µg/mL) | 6.25 µM (≈ 2 µg/mL) | 41.2 µM (≈ 13.2 µg/mL) | 25 µM (≈ 8.01 µg/mL) | 25 µM (≈ 8.01 µg/mL) | 19 µM (≈ 6.09 µg/mL) | 6.25 µM (≈ 2 µg/mL) | 12.5 µM (≈ 4 µg/mL) | 12.5 µM (≈ 4 µg/mL) | 19 µM (≈ 6.09 µg/mL) | 6.25 µM (≈ 2 µg/mL) | 19 µM (≈ 6.09 µg/mL) | 9.89 µM (≈ 3.17 µg/mL) | 31.5 µM | 12.5 µM (≈ 4 µg/mL) | 19 µM (≈ 6.09 µg/mL) | 19 µM (≈ 6.09 µg/mL) | 6.25 µM (≈ 2 µg/mL)
CCCCc1ccc(C(=O)Nc2nccc3ccccc23)nc1 | 3.12 µM (≈ 0.953 µg/mL) | 6.25 µM (≈ 1.91 µg/mL) | 61 µM (≈ 18.6 µg/mL) | 9.4 µM (≈ 2.87 µg/mL) | 6.25 µM (≈ 1.91 µg/mL) | 6.25 µM (≈ 1.91 µg/mL) | 3.12 µM (≈ 0.953 µg/mL) | 0.78 µM (≈ 0.238 µg/mL) | 1.56 µM (≈ 0.476 µg/mL) | 6.25 µM (≈ 1.91 µg/mL) | 0.78 µM (≈ 0.238 µg/mL) | 4.7 µM (≈ 1.44 µg/mL) | 39.1 µM (≈ 11.9 µg/mL) | 73.8 µM | 2.3 µM (≈ 0.702 µg/mL) | 4.7 µM (≈ 1.44 µg/mL) | 6.25 µM (≈ 1.91 µg/mL) | 1.56 µM (≈ 0.476 µg/mL)
Cn1ccnc1CNCCS(=O)(=O)c1cccc(Nc2ccc(-c3cccc(F)c3)cn2)c1 | > 50 µM | > 50 µM | > 100 µM | > 50 µM | > 50 µM | > 50 µM | > 50 µM | 25 µM (≈ 11.6 µg/mL) | 37 µM (≈ 17.2 µg/mL) | > 50 µM | 25 µM (≈ 11.6 µg/mL) | 50 µM (≈ 23.3 µg/mL) | > 100 µM | 46.1 µM | 12.5 µM (≈ 5.82 µg/mL) | ≥ 50 µM | 19 µM (≈ 8.85 µg/mL) | 25 µM (≈ 11.6 µg/mL)
COc1ccc(Nc2ccccc2NC(=O)c2ccc(O)nc2)cc1 | > 50 µM | 6.25 µM (≈ 2.1 µg/mL) | 17.8 µM (≈ 5.97 µg/mL) | 37 µM (≈ 12.4 µg/mL) | > 50 µM | 12.5 µM (≈ 4.19 µg/mL) | 1.5 µM (≈ 0.503 µg/mL) | 0.3 µM (≈ 0.101 µg/mL) | 0.6 µM (≈ 0.201 µg/mL) | 37 µM (≈ 12.4 µg/mL) | < 0.02 µM | 37 µM (≈ 12.4 µg/mL) | 28.6 µM (≈ 9.59 µg/mL) | 42.5 µM | 0.6 µM (≈ 0.201 µg/mL) | 2.3 µM (≈ 0.771 µg/mL) | 37 µM (≈ 12.4 µg/mL) | < 0.02 µM
